Assay results reported in PMC11544713, “The Application of Untargeted Metabolomic Approaches for the Search of Common Bioavailable Metabolites in Human Plasma Samples from Lippia citriodora and Olea europaea Extracts” (Journal of Agricultural and Food Chemistry, 2024).

Columns and labels:
[1] = Acute intervention: nutrikinetics of plasma metabolites after ingestion of L. citriodora extract (untargeted HPLC-ESI-QTOF-MS)
Protocol: (§1) A total of 25 healthy individuals participated, with an average age of 27 ± 9 years and a mean body mass index (BMI) of 23 ± 3 kg/m^2. None of the participants were taking any medications or nutritional supplements nor did they have any chronic diseases or gastrointestinal issues. The sample size was established based on findings from previous bioavailability research.[14] All participants provided informed consent before participating in the study.
(§2) The intervention study was carried out at Miguel Hernández University. Following an overnight fast, the volunteers were categorized into the subsequent groups: a subgroup to evaluate the LC leaf extract (n = 8), another for the OE leaf extract (n = 8), and the placebo subgroup (n = 9). This was a double-blind study, in which sample collection and treatment were carried out uniformly across all three subgroups.
(§3) Water was provided ad libitum. Prior to the ingestion of the capsule, a nurse inserted a cannula into the ulnar vein of each volunteer’s nondominant arm, and blood samples were drawn into EDTA-coated tubes at baseline (t = 0). Blood samples were then collected at 0.5, 1, 2, 4, 6, 8, and 10 h after the consumption of the 500 mg capsule. Plasma was separated through centrifugation (10 min at 3000 rpm and 4 °C) and stored at −80 °C until further analysis.
(§4) Plasma samples were initially treated using a mixture of methanol and ethanol (50:50; v:v) to remove proteins, following previously reported protocols.[19] During the sample treatment, pooled quality controls (pooled-QC) were prepared by combining equal aliquots from each sample. These QC samples were processed by using the same protocols as the experimental biological samples.
(§5) A reversed-phase analytical C18 column (Agilent Zorbax Eclipse Plus, 1.8 μm, 4.6 × 150 mm^2) with a protective cartridge with the same packing was used. MS data were acquired in negative ionization mode, operating in full scan across a mass-to-charge ratio (m/z) range of 50–1700. The analytical method used was adapted from that described by Villegas-Aguilar et al.[19]
(§6) Metabolite nutrikinetics were studied using PKSolver, an add-in program for pharmacokinetic data analysis in Microsoft Excel. The time to reach the maximum concentration (observed Tmax) was calculated for each significant metabolite. As an untargeted metabolomic approach was used to detect the circulating metabolites, these were not quantified. Therefore, the maximum concentration (Cmax) and area under the curve (AUC) parameters were calculated in a relative way by using the deconvoluted chromatographic areas. […] Statistical differences were determined by unpaired t tests. All p values less than 0.05 were considered statistically significant.

[2] = Acute intervention: nutrikinetics of plasma metabolites after ingestion of O. europaea extract (untargeted HPLC-ESI-QTOF-MS)
Protocol: as §1, §2, §3, §4, §5, §6

[3] = 0.5 h after L. citriodora extract
[4] = 1 h after L. citriodora extract
[5] = 2 h after L. citriodora extract
[6] = 4 h after L. citriodora extract
[7] = 6 h after L. citriodora extract
[8] = 8 h after L. citriodora extract
[9] = 10 h after L. citriodora extract
[10] = human plasma, 500 mg capsule of L. citriodora (LC) extract, oral, mean ± SD
[11] = human plasma, 500 mg capsule of O. europaea (OE) extract, oral, mean ± SD
[12] = 0.5 h after O. europaea extract

Row | Molecule | mean chromatographic area in plasma, T0.5 [1, 3] | mean chromatographic area in plasma, T1 [1, 4] | mean chromatographic area in plasma, T2 [1, 5] | mean chromatographic area in plasma, T4 [1, 6] | mean chromatographic area in plasma, T6 [1, 7] | mean chromatographic area in plasma, T8 [1, 8] | mean chromatographic area in plasma, T10 [1, 9] | AUC: area under the zero-moment curve [1, 10] | Cmax: relative maximum plasma level [1, 10] | observed Tmax: time required to reach Cmax [1, 10] | mean chromatographic area in plasma, T10 ([2]; 10 h after O. europaea extract) | Cmax: relative maximum plasma level [2, 11] | observed Tmax: time required to reach Cmax [2, 11] | observed Tmax: time required to reach Cmax ([2]; human, in vivo, po, 500 mg) | mean chromatographic area in plasma, T1 ([2]; in vivo) | mean chromatographic area in plasma, T2 ([2]; in vivo) | mean chromatographic area in plasma, T4 ([2]; in vivo) | mean chromatographic area in plasma, T6 ([2]; in vivo) | mean chromatographic area in plasma, T8 ([2]; in vivo) | mean chromatographic area in plasma, T10 ([2]; in vivo) | other results
1 | CC1=CC(=O)CC(C)(C)C1(O)/C=C/C(C)=C/COC1OC(CO)C(O)C(O)C1O (single isomer, unassigned; isomer 1) [abscisic alcohol 11-glucoside isomer 1, abscisic alcohol 11-glucoside] | 50 | 188 | 61 | 0 | 0 | 0 | 0 | 259 ± 134 relative chromatographic area/h | 202 ± 82 relative chromatographic area | 1.2 ± 0.4 h | – | – | – | – | – | – | – | – | – | – | –
2 | O=C(O)C=Cc1ccc(OS(=O)(=O)O)c(O)c1 (single isomer, unassigned; isomer 1) [caffeic acid 4-sulfate isomer 1, caffeic acid 4-sulfate] | – | – | – | – | – | – | – | – | – | – | – | – | – | – | – | – | – | – | – | – | AUC: area under the zero-moment curve ([1]; human, in vivo, po, 500 mg): 1157 ± 757 relative chromatographic area/h; Cmax: relative maximum plasma level ([1]; human, in vivo, po, 500 mg): 325 ± 147 relative chromatographic area; observed Tmax: time required to reach Cmax ([1]; human, in vivo, po, 500 mg): 3 ± 1 h; mean chromatographic area in plasma, T0.5 ([1]; in vivo): 21; mean chromatographic area in plasma, T1 ([1]; in vivo): 89; mean chromatographic area in plasma, T2 ([1]; in vivo): 280; mean chromatographic area in plasma, T4 ([1]; in vivo): 177; mean chromatographic area in plasma, T6 ([1]; in vivo): 86; mean chromatographic area in plasma, T8 ([1]; in vivo): 67; mean chromatographic area in plasma, T10 ([1]; in vivo): 0
3 | COc1cc(CCCO)ccc1OC1OC(CO)C(O)C(O)C1O (single isomer, unassigned; isomer 1) [dihydroconiferin isomer 1, dihydroconiferin] | 44 | 137 | 0 | 0 | 0 | 0 | 0 | 126 ± 28 relative chromatographic area/h | 139 ± 19 relative chromatographic area | 0.9 ± 0.2 h | – | – | – | – | – | – | – | – | – | – | –
4 | CC1=CC(=O)CC(C)(C)C1(O)/C=C/C(C)=C/COC1OC(CO)C(O)C(O)C1O (single isomer, unassigned; isomer 2) [abscisic alcohol 11-glucoside isomer 2, abscisic alcohol 11-glucoside] | 111 | 519 | 176 | 23 | 0 | 0 | 0 | 757 ± 174 relative chromatographic area/h | 562 ± 251 relative chromatographic area | 2 ± 1 h | – | – | – | – | – | – | – | – | – | – | –
5 | homovanillyl alcohol glucuronide [homovanillyl alcohol glucuronide isomer 2] | – | – | – | – | – | – | – | – | – | – | 0 | 735 ± 257 relative chromatographic area | 1.6 ± 0.5 h | – | – | – | – | – | – | – | mean chromatographic area in plasma, T0.5 ([2]; 0.5 h after O. europaea extract, listed as homovanillic alcohol glucuronide isomer 2): 242; mean chromatographic area in plasma, T1 ([2]; 1 h after O. europaea extract, listed as homovanillic alcohol glucuronide isomer 2): 677; mean chromatographic area in plasma, T2 ([2]; 2 h after O. europaea extract, listed as homovanillic alcohol glucuronide isomer 2): 704; mean chromatographic area in plasma, T4 ([2]; 4 h after O. europaea extract, listed as homovanillic alcohol glucuronide isomer 2): 365; mean chromatographic area in plasma, T6 ([2]; 6 h after O. europaea extract, listed as homovanillic alcohol glucuronide isomer 2): 165; mean chromatographic area in plasma, T8 ([2]; 8 h after O. europaea extract, listed as homovanillic alcohol glucuronide isomer 2): 61
6 | hydroxytyrosol glucuronide [hydroxytyrosol glucuronide isomer 1] | – | – | – | – | – | – | – | – | – | – | 0 | 1002 ± 411 relative chromatographic area | 0.9 ± 0.2 h | – | – | – | – | – | – | – | mean chromatographic area in plasma, T0.5 [2, 12]: 724; mean chromatographic area in plasma, T1 ([2]; 1 h after O. europaea extract): 955; mean chromatographic area in plasma, T2 ([2]; 2 h after O. europaea extract): 463; mean chromatographic area in plasma, T4 ([2]; 4 h after O. europaea extract): 158; mean chromatographic area in plasma, T6 ([2]; 6 h after O. europaea extract): 61; mean chromatographic area in plasma, T8 ([2]; 8 h after O. europaea extract): 28
7 | hydroxytyrosol sulfate [hydroxytyrosol sulfate isomer 1] | – | – | – | – | – | – | – | – | – | – | 45 | 593 ± 382 relative chromatographic area | 3 ± 3 h | – | – | – | – | – | – | – | mean chromatographic area in plasma, T0.5 [2, 12]: 280; mean chromatographic area in plasma, T1 ([2]; 1 h after O. europaea extract): 323; mean chromatographic area in plasma, T2 ([2]; 2 h after O. europaea extract): 178; mean chromatographic area in plasma, T4 ([2]; 4 h after O. europaea extract): 328; mean chromatographic area in plasma, T6 ([2]; 6 h after O. europaea extract): 118; mean chromatographic area in plasma, T8 ([2]; 8 h after O. europaea extract): 202
8 | kaempferol sulfate | – | – | – | – | – | – | – | – | – | – | – | – | – | 1.1 ± 0.3 h | 165 | 59 | 0 | 0 | 0 | 0 | Cmax: relative maximum plasma level ([2]; human, in vivo, po, 500 mg): 172 ± 102 relative chromatographic area; mean chromatographic area in plasma, T0.5 ([2]; in vivo): 25
9 | oleuropein aglycone glucuronide [oleuropein aglycone glucuronide isomer 1] | – | – | – | – | – | – | – | – | – | – | – | – | – | 0.8 ± 0.2 h | 202 | 29 | 0 | 0 | 0 | 0 | Cmax: relative maximum plasma level ([2]; human, in vivo, po, 500 mg): 244 ± 128 relative chromatographic area; mean chromatographic area in plasma, T0.5 ([2]; in vivo): 186
10 | oleuropein aglycone glucuronide [oleuropein aglycone glucuronide isomer 2] | – | – | – | – | – | – | – | – | – | – | – | – | – | 0.9 ± 0.2 h | 482 | 197 | 24 | 0 | 0 | 0 | –
